How the values were obtained:
c-kit kinase = biological target: T1, c-kit kinase (Homo sapiens, UniProt P10721); experiment: c-Kit biochemical assay, AlphaScreen, 10 μM ATP; settings: c-kit biochemical inhibitory activity; read-out: Biochemical activity (IC50 μM) Kit
T1 construct: The c-kit (or kinase domain thereof) is an active kinase in AlphaScreen; poly-Histidine tag (in-house protein only) (cleaved yes); host or cells: E. coli BL21(DE3)RIL, co-expressed with PTP1B
Procedure, shortened: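 His-tagged c-Kit expressed in E. coli with co-expressed PTP1B (dephosphorylated), tag removed; 0.1 ng per reaction with biotinylated-peptide substrate in 50 mM HEPES pH 7.2, 5 mM MgCl2, 5 mM MnCl2, 5% DMSO, 10 μM ATP, 1 h at room temperature. Phosphorylation detected by AlphaScreen (streptavidin donor, PY20 acceptor beads); IC50 from 8-point 1:3 dilution series.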

c-kit mutant D816V = biological target: T2, c-kit mutant D816V (Homo sapiens, UniProt P10721, D816V/DEL694-753); experiment: c-Kit mutant D816V biochemical assay, AlphaScreen; settings: c-kit D816V biochemical inhibitory activity; read-out: Biochemical activity (IC50 μM) Kit D816V
T2 construct: residues 551-934, kinase insertion domain residues 694-753 deleted; 6x-histidine (N); made in house; host or cells: E. coli Arctic Express (DE3) RIL (Stratagene)
T2 sequence (P10721 with tags, fused parts or gaps DEL694-753/D816V): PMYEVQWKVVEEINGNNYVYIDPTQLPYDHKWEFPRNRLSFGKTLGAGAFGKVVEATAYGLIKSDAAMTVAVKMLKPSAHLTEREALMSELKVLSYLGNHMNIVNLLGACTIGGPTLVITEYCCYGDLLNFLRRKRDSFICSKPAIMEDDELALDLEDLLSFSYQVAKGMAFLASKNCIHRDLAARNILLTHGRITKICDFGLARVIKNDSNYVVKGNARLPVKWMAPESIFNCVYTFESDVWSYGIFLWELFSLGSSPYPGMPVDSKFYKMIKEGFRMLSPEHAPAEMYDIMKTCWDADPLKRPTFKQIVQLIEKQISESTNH
Procedure, shortened: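 Purified His-tagged c-Kit D816V (E. coli-expressed) assayed in 25 mM HEPES pH 7.2 with Mg/Mn, 5% DMSO and 10 μM ATP, 30 min at room temperature, 8-point 1:3 dilutions. Phosphorylation detected by AlphaScreen with streptavidin donor and PY20 acceptor beads; IC50 from signal versus concentration.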

T1 sequence (P10721 26-976): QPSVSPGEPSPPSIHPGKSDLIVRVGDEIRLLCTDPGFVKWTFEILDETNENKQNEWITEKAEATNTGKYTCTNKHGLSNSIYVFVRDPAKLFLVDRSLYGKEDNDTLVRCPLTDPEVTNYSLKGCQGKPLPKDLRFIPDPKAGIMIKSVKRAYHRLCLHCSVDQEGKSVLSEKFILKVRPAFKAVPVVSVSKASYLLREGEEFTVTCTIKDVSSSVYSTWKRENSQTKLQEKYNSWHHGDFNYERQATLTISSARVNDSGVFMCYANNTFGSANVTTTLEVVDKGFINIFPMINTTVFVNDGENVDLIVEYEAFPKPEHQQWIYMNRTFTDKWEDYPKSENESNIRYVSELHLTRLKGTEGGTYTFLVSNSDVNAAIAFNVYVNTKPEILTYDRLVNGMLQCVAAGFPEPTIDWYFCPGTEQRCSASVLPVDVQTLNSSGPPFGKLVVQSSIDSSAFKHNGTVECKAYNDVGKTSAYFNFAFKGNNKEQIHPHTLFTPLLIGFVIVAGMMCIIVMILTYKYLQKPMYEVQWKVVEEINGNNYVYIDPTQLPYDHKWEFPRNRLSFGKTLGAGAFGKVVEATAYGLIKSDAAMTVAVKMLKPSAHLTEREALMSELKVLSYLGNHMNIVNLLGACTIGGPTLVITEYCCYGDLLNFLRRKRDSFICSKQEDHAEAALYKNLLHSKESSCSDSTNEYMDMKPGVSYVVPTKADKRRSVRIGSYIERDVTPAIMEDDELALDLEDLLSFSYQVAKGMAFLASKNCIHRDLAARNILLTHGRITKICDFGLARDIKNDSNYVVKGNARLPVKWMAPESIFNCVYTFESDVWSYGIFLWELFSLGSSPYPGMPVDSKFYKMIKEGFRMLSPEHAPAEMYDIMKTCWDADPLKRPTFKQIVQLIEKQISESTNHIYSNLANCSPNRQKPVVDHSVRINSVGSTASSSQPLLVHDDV

Q: Which results are given for `Cc1ccc(-c2cc3c(N4CCN(C(=O)N[C@@H](C)c5cccc(OC(F)F)c5)C(C)(C)C4)ncnc3[nH]2)cn1` [P-0002, N-[(1S)-1-[3-(difluoromethoxy)phenyl]ethyl]-2,2-dimethyl-4-[6-(6-methyl-3-pyridyl)-7H-pyrrolo[2,3-d]pyrimidin-4-yl]piperazine-1-carboxamide]?
A: IC50 (c-kit kinase): 1 to 10 µM; IC50 (c-kit mutant D816V): 0.0001 to 1 µM

Q: With `Cc1ncc(-c2cc3c(N4CCN(C(=O)NCc5ccc(F)cc5)CC4)ncnc3[nH]2)s1` [P-0079, N-[(4-fluorophenyl)methyl]-4-[6-(2-methylthiazol-5-yl)-7H-pyrrolo[2,3-d]pyrimidin-4-yl]piperazine-1-carboxamide] as the compound, how does the IC50 (c-kit kinase) read?
A: 0.0001 to 1 µM

Q: And the IC50 (c-kit mutant D816V)?
A: 0.0001 to 1 µM

Q: Which IC50 (c-kit kinase) does the source give for `O=C(NCc1ccc(Cl)cc1)N1CCN(c2ncnc3[nH]c(-c4ccc(Cl)cc4)cc23)CC1` [P-0212, N-[(4-chlorophenyl)methyl]-4-[6-(4-chlorophenyl)-7H-pyrrolo[2,3-d]pyrimidin-4-yl]piperazine-1-carboxamide] here?
A: 1 to 10 µM

Q: And the IC50 (c-kit mutant D816V)?
A: 0.0001 to 1 µM

Q: `Cc1nn(C)cc1-c1cc2ncnc(N3CCN(C(=O)NCc4ccc(F)cc4)CC3)c2s1` [P-0619, 4-[6-(1,3-dimethylpyrazol-4-yl)thieno[3,2-d]pyrimidin-4-yl]-N-[(4-fluorophenyl)methyl]piperazine-1-carboxamide] was tested. Which IC50 (c-kit kinase) did it give?
A: 1 to 10 µM

Q: What about the IC50 (c-kit mutant D816V) of the same compound?
A: 0.0001 to 1 µM

Q: Which results are given for `O=C(Nc1ccc(Cl)cc1)N1CCN(c2ncnc3[nH]ccc23)CC1` [P-0171, N-(4-chlorophenyl)-4-(7H-pyrrolo[2,3-d]pyrimidin-4-yl)piperazine-1-carboxamide]?
A: IC50 (c-kit kinase): 10 to 200 µM; IC50 (c-kit mutant D816V): 10 to 200 µM

Q: Which IC50 (c-kit kinase) does the source give for `Cc1ccc(-c2cc3c(N4CCN(C(=O)NCc5ccc(F)cc5)CC4)ncnc3[nH]2)cn1` [P-0103, N-[(4-fluorophenyl)methyl]-4-[6-(6-methyl-3-pyridyl)-7H-pyrrolo[2,3-d]pyrimidin-4-yl]piperazine-1-carboxamide] here?
A: 1 to 10 µM

Q: What about the IC50 (c-kit mutant D816V) of the same compound?
A: 0.0001 to 1 µM

Q: What does the source list for `Cc1ccc(S(=O)(=O)Nc2ccc(-c3ncnc4cc(C5=CCN(C(=O)OC(C)(C)C)CC5)sc34)cc2)cc1` [P-0614, tert-butyl 4-[4-[4-(p-tolylsulfonylamino)phenyl]thieno[3,2-d]pyrimidin-6-yl]-3,6-dihydro-2H-pyridine-1-carboxylate]?
A: IC50 (c-kit kinase): 1 to 10 µM; IC50 (c-kit mutant D816V): 0.0001 to 1 µM

Q: `O=C(NCc1ccc(F)cc1)N1CCN(c2ncnc3[nH]cc(CC4CC4)c23)CC1` [P-0137, 4-[5-(cyclopropylmethyl)-7H-pyrrolo[2,3-d]pyrimidin-4-yl]-N-[(4-fluorophenyl)methyl]piperazine-1-carboxamide] was tested. Which IC50 (c-kit kinase) did it give?
A: 10 to 200 µM

Q: And the IC50 (c-kit mutant D816V)?
A: 1 to 10 µM

Q: `Cc1cc2c(N3CCC(NS(=O)(=O)c4ccc(Cl)cc4)CC3)ncnc2[nH]1` [P-0728, 4-chloro-N-[1-(6-methyl-7H-pyrrolo[2,3-d]pyrimidin-4-yl)-4-piperidyl]benzenesulfonamide] was tested. Which IC50 (c-kit kinase) did it give?
A: 0.0001 to 1 µM

Q: And the IC50 (c-kit mutant D816V)?
A: 0.0001 to 1 µM

Q: Which IC50 (c-kit kinase) does the source give for `[2H]C([2H])([2H])S(=O)(=O)Nc1ccc(-c2ncnc3[nH]c(-c4ccc(F)cc4)cc23)c(F)c1` [P-0368, 1,1,1-trideuterio-N-[3-fluoro-4-[6-(4-fluorophenyl)-7H-pyrrolo[2,3-d]pyrimidin-4-yl]phenyl]methanesulfonamide] here?
A: 0.0001 to 1 µM

Q: And the IC50 (c-kit mutant D816V)?
A: 0.0001 to 1 µM

Q: What does the source list for `C[C@H](NC(=O)N1CCN(c2ncnc3[nH]c(-c4cnn(C)c4)cc23)CC1)c1ccc(F)cc1` [P-0094, N-[(1S)-1-(4-fluorophenyl)ethyl]-4-[6-(1-methylpyrazol-4-yl)-7H-pyrrolo[2,3-d]pyrimidin-4-yl]piperazine-1-carboxamide]?
A: IC50 (c-kit kinase): 1 to 10 µM; IC50 (c-kit mutant D816V): 0.0001 to 1 µM

Q: What does the source list for `Cc1ccc(S(=O)(=O)Nc2ccc(-c3ncnc4[nH]c(C)cc34)c(F)c2)cc1` [P-0293, N-[3-fluoro-4-(6-methyl-7H-pyrrolo[2,3-d]pyrimidin-4-yl)phenyl]-4-methyl-benzenesulfonamide]?
A: IC50 (c-kit kinase): 1 to 10 µM; IC50 (c-kit mutant D816V): 0.0001 to 1 µM

Q: What does the source list for `Cc1nn(C)cc1-c1cc2ncnc(C3=CCN(C(=O)NCc4ccc(F)cc4)CC3)c2s1` [P-0613, 4-[6-(1,3-dimethylpyrazol-4-yl)thieno[3,2-d]pyrimidin-4-yl]-N-[(4-fluorophenyl)methyl]-3,6-dihydro-2H-pyridine-1-carboxamide]?
A: IC50 (c-kit kinase): 1 to 10 µM; IC50 (c-kit mutant D816V): 0.0001 to 1 µM

Q: `O=C(NCc1ccc(Cl)cc1)N1CCN(c2ncnc3[nH]c(-c4ccccc4)cc23)CC1` [P-0215, N-[(4-chlorophenyl)methyl]-4-(6-phenyl-7H-pyrrolo[2,3-d]pyrimidin-4-yl)piperazine-1-carboxamide] was tested. Which IC50 (c-kit kinase) did it give?
A: 10 to 200 µM

Q: And the IC50 (c-kit mutant D816V)?
A: 10 to 200 µM

Q: What does the source list for `COc1cc2ncnc(-c3ccc(NS(=O)(=O)C4CC4)cc3F)c2cc1OCCCN1CCOCC1` [P-0251, N-[3-fluoro-4-[7-methoxy-6-(3-morpholinopropoxy)quinazolin-4-yl]phenyl]cyclopropanesulfonamide]?
A: IC50 (c-kit kinase): 10 to 200 µM; IC50 (c-kit mutant D816V): 0.0001 to 1 µM

Q: `Cc1cc2c(-c3ccc(NS(=O)(=O)c4ccc5oncc5c4)cc3)ncnc2[nH]1` [P-0303, N-[4-(6-methyl-7H-pyrrolo[2,3-d]pyrimidin-4-yl)phenyl]-1,2-benzoxazole-5-sulfonamide] was tested. Which IC50 (c-kit kinase) did it give?
A: 10 to 200 µM

Q: And the IC50 (c-kit mutant D816V)?
A: 10 to 200 µM

Q: `[2H]C([2H])([2H])S(=O)(=O)Nc1ccc(-c2ncnc3[nH]c(-c4ccc(F)cc4)cc23)cc1F` [P-0367, 1,1,1-trideuterio-N-[2-fluoro-4-[6-(4-fluorophenyl)-7H-pyrrolo[2,3-d]pyrimidin-4-yl]phenyl]methanesulfonamide] was tested. Which IC50 (c-kit kinase) did it give?
A: 10 to 200 µM

Q: What about the IC50 (c-kit mutant D816V) of the same compound?
A: 0.0001 to 1 µM

Q: Which results are given for `N#Cc1cccc(-c2cc3c(N4CCN(C(=O)NCc5ccc(F)cc5)CC4)ncnc3[nH]2)c1` [P-0110, 4-[6-(3-cyanophenyl)-7H-pyrrolo[2,3-d]pyrimidin-4-yl]-N-[(4-fluorophenyl)methyl]piperazine-1-carboxamide]?
A: IC50 (c-kit kinase): 10 to 200 µM; IC50 (c-kit mutant D816V): 1 to 10 µM

Q: With `Cc1cc2c(-c3ccc(NS(=O)(=O)c4cccc(F)c4)c(F)c3)ncnc2[nH]1` [P-0347, 3-fluoro-N-[2-fluoro-4-(6-methyl-7H-pyrrolo[2,3-d]pyrimidin-4-yl)phenyl]benzenesulfonamide] as the compound, how does the IC50 (c-kit kinase) read?
A: 1 to 10 µM

Q: What about the IC50 (c-kit mutant D816V) of the same compound?
A: 1 to 10 µM

Q: With `Cc1cc2c(-c3ccc(NS(=O)(=O)c4ccc(Cl)cc4)c(F)c3)ncnc2[nH]1` [P-0344, 4-chloro-N-[2-fluoro-4-(6-methyl-7H-pyrrolo[2,3-d]pyrimidin-4-yl)phenyl]benzenesulfonamide] as the compound, how does the IC50 (c-kit kinase) read?
A: 1 to 10 µM

Q: And the IC50 (c-kit mutant D816V)?
A: 1 to 10 µM

Q: What does the source list for `C[C@H](NC(=O)N1CC=C(c2ncnc3cc(-c4ccc(F)cc4)sc23)CC1)c1cccc(Cl)c1` [P-0579, N-[(1S)-1-(3-chlorophenyl)ethyl]-4-[6-(4-fluorophenyl)thieno[3,2-d]pyrimidin-4-yl]-3,6-dihydro-2H-pyridine-1-carboxamide]?
A: IC50 (c-kit kinase): 10 to 200 µM; IC50 (c-kit mutant D816V): 1 to 10 µM

Q: Which IC50 (c-kit kinase) does the source give for `CCCNC(=O)N1CCN(c2ncnc3[nH]c(-c4cccnc4)cc23)CC1` [P-0218, N-propyl-4-[6-(3-pyridyl)-7H-pyrrolo[2,3-d]pyrimidin-4-yl]piperazine-1-carboxamide] here?
A: 10 to 200 µM

Q: What about the IC50 (c-kit mutant D816V) of the same compound?
A: 1 to 10 µM

Q: For `C[C@H](NC(=O)N1CCN(c2ncnc3[nH]c(-c4ccncc4)cc23)C[C@H]1C)c1ccc(Cl)cc1` [P-0059, (2R)-N-[(1S)-1-(4-chlorophenyl)ethyl]-2-methyl-4-[6-(4-pyridyl)-7H-pyrrolo[2,3-d]pyrimidin-4-yl]piperazine-1-carboxamide], which IC50 (c-kit kinase) is on record?
A: 0.0001 to 1 µM

Q: And the IC50 (c-kit mutant D816V)?
A: 0.0001 to 1 µM

Q: For `Cc1cc2c(-c3ccc(NS(=O)(=O)c4ccc(F)cc4)cc3)ncnc2[nH]1` [P-0331, 4-fluoro-N-[4-(6-methyl-7H-pyrrolo[2,3-d]pyrimidin-4-yl)phenyl]benzenesulfonamide], which IC50 (c-kit kinase) is on record?
A: 1 to 10 µM

Q: What about the IC50 (c-kit mutant D816V) of the same compound?
A: 1 to 10 µM
